Experimental findings from US5516777A, “Condensed pyrazole derivatives, and androgen inhibitor” (Otsuka Pharmaceutical Co., Ltd., priority 1992, dated 1996) are described below.

For series [1], the target named is T1, rat prostate androgen receptor (Rattus norvegicus, UniProt P15207).
T1 sequence (P15207 1-902): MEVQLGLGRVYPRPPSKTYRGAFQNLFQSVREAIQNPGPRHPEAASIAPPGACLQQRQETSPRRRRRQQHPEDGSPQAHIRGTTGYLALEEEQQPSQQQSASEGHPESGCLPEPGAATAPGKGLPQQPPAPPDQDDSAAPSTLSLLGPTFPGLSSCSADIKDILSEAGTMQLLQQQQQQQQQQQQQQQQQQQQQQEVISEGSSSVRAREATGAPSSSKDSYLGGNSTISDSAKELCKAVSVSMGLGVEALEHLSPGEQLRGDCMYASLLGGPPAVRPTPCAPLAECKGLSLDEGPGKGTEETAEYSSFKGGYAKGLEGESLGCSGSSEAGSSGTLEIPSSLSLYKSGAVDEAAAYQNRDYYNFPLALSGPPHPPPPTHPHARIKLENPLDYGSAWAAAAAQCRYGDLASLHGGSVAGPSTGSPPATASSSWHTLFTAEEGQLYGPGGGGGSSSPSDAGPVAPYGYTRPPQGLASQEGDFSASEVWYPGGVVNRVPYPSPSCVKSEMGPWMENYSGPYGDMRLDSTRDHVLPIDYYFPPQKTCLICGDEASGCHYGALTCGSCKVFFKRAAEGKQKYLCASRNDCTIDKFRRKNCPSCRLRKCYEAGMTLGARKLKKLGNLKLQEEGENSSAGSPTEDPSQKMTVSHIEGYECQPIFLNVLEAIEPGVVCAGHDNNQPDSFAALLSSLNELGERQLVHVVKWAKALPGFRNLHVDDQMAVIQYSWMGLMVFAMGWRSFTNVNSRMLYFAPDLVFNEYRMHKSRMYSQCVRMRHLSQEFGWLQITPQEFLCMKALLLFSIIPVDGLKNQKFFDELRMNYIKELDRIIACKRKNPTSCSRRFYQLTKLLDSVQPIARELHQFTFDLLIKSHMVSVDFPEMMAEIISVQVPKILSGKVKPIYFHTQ
Conditions: 1 nM ^3 H-mibolerone, 20 hours at 0° C., rat ventral prostate cytosol; read-out: Inhibitory activity on mibolerone specific binding [IC50 (M)].
Experimental: Assay of inhibitory activity to binding of ^3 H-mibolerone on rat prostate androgen receptor
(1) Preparation of Cytosol from Rat Prostate
The rats were killed 24 hours after castration, and the ventral prostate glands were removed, and was gently homogenized, with three volume of buffer solution A (1.5 mM EDTA, 2 mM dithiothreitol, 10 mM molybdate sodium, 10% by volume of glycerol, 10 mM NaF, 25 mM phosphate sodium, pH 7.2) on ice-water bath, in Polytron, and Potter type homogenizer. The obtained homogenate was filtrated through double gauze, and centrifuged at 105,000×g for 60 minutes at 4° C., and the supernatant was obtained as cytoplasm fraction.
(2) Measurement of Specific binding of ^3 H-mibolerone to Prostate Cytoplasm Androgen Receptor
To the cytoplasm fraction obtained in (1) was added ^3 H-mibolerone (87.0 Ci/millimol), so that a final concentration is adjusted to 1 nM, and at the same time, in order to block binding of ^3 H-mibolerone to progestin receptor, triamsinolone acetonide was added to a final concentration of 5 μM, and the final volume was adjusted to 0.4 ml with buffer solution A, and the reaction mixture was incubated for 20 hours at 0° C. After incubation, 0.5 ml of 60% hydroxylapatite slurry (washed and equilibrate with a buffer solution B: 10 mM NaH2 PO4, 20 mM tris-hydrochloric acid, pH 7.2) was added, and incubated for 10 minutes at 0° C., the solution was transferred onto a glass fiber filter, and washed five times with 5 ml portions of buffer solution B containing 0.1% (weight/volume) of Triton X-100, to remove free ^3 H-mibolerone. This glass fiber was transferred into vial, and 10 ml of aquasol- 2 was added, and the radioactivity was measured, and the total binding amount of ^3 H-mibolerone on prostate cytoplasm androgen receptor was determined.
The nonspecific binding amount was determined similarly by adding an unlabeled 5α-DHT in the reaction solution to a final concentration of 1 μM. The difference between the total binding amount and nonspecific binding amount was determined as the specific binding amount on the androgen receptor.
(3) Inhibitory Activity of Sample Compounds on ^3 H-mibolerone Specific Binding
The various concentrations of compounds obtained in the experiments were added simultaneously with ^3 H-mibolerone to incubate same as in (2), and the specific binding amount of ^3 H-mibolerone on androgen receptor was determined. Comparing this value with the value obtained in (2), the IC50 value of inhibitory activity of the compounds on ^3 H-mibolerone specific binding was determined.

Series [2] is described as follows: In vitro drug metabolism in rat liver extract. The note with it: pH 7.4, 37° C.; for remaining at 5 min / remaining at 0.25 h / remaining at 0.5 h / remaining at 1 h: rat liver extract; for remaining at 5 min: read-out: Residual amount of test compound, 5 min.; for remaining at 0.25 h: 15 min., read-out: Residual amount of test compound, 15 min.; for remaining at 0.5 h: 30 min., read-out: Residual amount of test compound, 30 min.; for remaining at 1 h: 60 min., read-out: Residual amount of test compound, 60 min.; for half-life: half-life in the rat liver extract, read-out: Half-time period. Type of series: in vitro ADME, male Wistar rats. The protocol:
2. In vitro drug metabolism in rat liver extract
The resistance of the compound against metabolic degradation by rat liver extract was investigated.
The male Wistar rats (weighing about 200 g) were used after fasting for 24 hours. The rat was sacrificed under ether anesthesia, and the livers were removed and were placed onto the ice.
The liver was minced with scissors under ice-cooling, and homogenized in the presence of 4 volumes of 1.15% KCl-0.1M phosphate buffer (pH 7.4) with a Potter type homogenizer. The homogenates were centrifuged at 9,000×g for 10 minutes at 4° C., and the supernatant filtered through the cheese-cloth was used as an enzyme solution.
The constitution of the reaction mixture was shown in below. 0.1M Buffer was sufficiently bubbled in 95% O2 -5% CO2 gas before use.
Glucose 6-phosphate (60.8 mg.ml)
Nicotineamide (9.16 mg/ml)
The tested samples were dissolved in dimethyl sulfoxide. MgCl2 ·6H2 O was dissolved in a distilled water, and all other reagents were dissolved in 0.1M phosphate buffer. The reaction was initiated by adding enzyme solution, and shaked at 37° C. with 120 cycles/minutes in Spitz test tubes with stoppers. The reaction was stopped by adding methanol after 5, 15, 30 and 60 minutes.
After termination of the reaction, samples were mixed by using of a Vortex mixer, and centrifuged at 3,000 rpm for 10 minutes. The supernatant was applied to a high-performance liquid chromatography of which conditons are shown in below. A residual amount of the mother compound was determined at certain time intervals, whererby half-life of the compound in the rat liver extract was calculated.
Column: Chemcosorb 5C18-300 Å 4.6 mm diameter and 150 mm length
Colume temperature: 50° C.

Consider `COc1cccc(Cc2ccc(-c3cnn4c(O)ccnc34)cc2)c1` [Example 28, 7-hydroxy-3-[4-(3-methoxyphenylmethyl)phenyl]pyrazolo[1,5-a]pyrimidine], for which the 50% inhibitory concentration (IC50) (usually the concentration needed to halve the response being measured) in series [1] came out at 1.2e-07 M. Besides, in series [2], the remaining at 5 min was 88.5%, the remaining at 0.25 h amounted to 74.3%, the remaining at 0.5 h stood at 66% and the remaining at 1 h was determined as 53.4%. The half-life in series [2] is greater than 60 min.

As to `Cc1cccc(Cc2ccc(-c3cnn4c(O)ncnc34)cc2)c1` [Example 13, 4-hydroxy-8-[4-(3-methylphenylmethyl)phenyl]pyrazolo[1,5-a]-1,3,5-triazine], in series [1], the half-maximal inhibitory concentration (IC50) is 1.2e-07 M. Besides, in series [2], the remaining at 5 min turned out to be 106%, the remaining at 0.25 h came to 100%, the remaining at 0.5 h was 97.6% and the remaining at 1 h was found to be 81.4%. Besides, the half-life in series [2] was greater than 60 min.

Consider `COc1cc(-c2cnn3c(O)ncnc23)ccc1Cc1ccccc1C` [Example 7], for which the 50% inhibitory concentration (IC50) in series [1] amounted to 6.2e-08 M.

`Cc1ccc(Cc2ccc(-c3cnn4c(O)ncnc34)cc2)cc1` [Example 16, 4-hydroxy-8-[4-(4-methylphenylmethyl)phenyl]pyrazolo[1,5-a]-1,3,5-triazine]: the IC50 in series [1] turned out to be 3e-07 M.

With `Cc1cccc(Cc2ccc(-c3cnn4c(O)ncnc34)cc2C)c1` [Example 29, 4-hydroxy-8-[3-methyl-4-(3-methylphenylmethyl)phenyl]pyrazolo[1,5-a]-1,3,5-triazine], in series [1], the IC50 was determined as 2e-08 M.

As to `Oc1ccnc2c(-c3ccc(Cc4ccc5c(c4)OCO5)cc3)cnn12` [Example 35, 7-hydroxy-4-[4-(3,4-methylenedioxyphenylmethyl)phenyl]pyrazolo[1,5-a]pyrimidine], in series [1], the IC50 worked out at 2.2e-07 M.

For `CCCC(c1ccccc1)c1ccc(-c2cnn3c(O)ncnc23)cc1` (stereo not drawn) [Example 20, 4-hydroxy-8-[4-(α-propylbenzyl)phenyl]pyrazolo[1,5-a]-1,3,5-triazine], the IC50 in series [1] came out at 2e-07 M.

As for `CC(C)(c1ccccc1)c1ccc(-c2cnn3c(O)ncnc23)cc1` [Example 33, 4-hydroxy-8-[4-(2-phenylporpan-2-yl)phenyl]pyrazolo[1,5-a]-1,3,5-triazine], the IC50 in series [1] came out at 1.2e-07 M.

In the case of `Oc1ncnc2c(-c3ccc(Cc4cccc(Cl)c4)cc3)cnn12` [Example 21, 8-[4-(3-chlorophenylmethyl)phenyl]-4-hydroxypyrazolo[1,5-a]-1,3,5-triazine], the concentration for half-maximal inhibition (IC50) in series [1] turned out to be 1.1e-07 M.

As to `COc1cc(-c2cnn3c(O)ncnc23)ccc1Sc1ccccc1` [Compound A3, reference compound], in series [2], the remaining at 5 min was 38.3%, the remaining at 0.25 h amounted to 18.6%, the remaining at 0.5 h amounted to 19.2% and the remaining at 1 h is 16.5%. The half-life in series [2] stood at 3 min.

For `Cc1cc(-c2cnn3c(O)ccnc23)ccc1Sc1ccccc1` [Compound B1, reference compound], in series [2], the remaining at 5 min is 46.5%, the remaining at 0.25 h came out at 25.6%, the remaining at 0.5 h was found to be 25.1% and the remaining at 1 h was determined as 27%. The half-life in series [2] amounted to 4.6 min.

As for `Cc1cc(-c2cnn3c(O)ncnc23)ccc1Sc1ccccc1` [Compound A2, reference compound], in series [2], the remaining at 5 min was 32.5%, the remaining at 0.25 h is 14.8%, the remaining at 0.5 h was 13.7% and the remaining at 1 h was 12.3%. In series [2], the half-life stood at 2.5 min.

In the case of `CC(c1ccccc1)c1ccc(-c2cnn3c(O)ccnc23)cc1` (stereo not drawn) [Example 25, 7-hydroxy-3-[4-(α-methylbenzyl)phenyl]pyrazolo[1,5-a]pyrimidine], the IC50 in series [1] is 2.8e-08 M.

Take `Cc1cccc(Cc2ccc(-c3cnn4c(O)ccnc34)cc2)c1` [Example 27, 7-hydroxy-3-[4-(3-methylphenylmethyl)phenyl]pyrazolo[1,5-a]pyrimidine]: in series [1], the IC50 amounted to 8.2e-08 M.

For `Oc1ncnc2c(-c3ccc(Cc4ccccc4)c(Cl)c3)cnn12` [Example 3, 8-(4-benzyl-3-chloro)phenyl-4-hydroxypyrazolo[1,5-a]-1,3,5-triazine], in series [1], the IC50 came to 4e-07 M.

For the molecule `COc1cccc(Cc2ccc(-c3cnn4c(O)ccnc34)cc2C)c1` [Example 26, 7-hydroxy-3-[4-(3-methoxyphenylmethyl)-3-methyl]phenylpyrazolo[1,5-a]pyrimidine], in series [1], the IC50 stood at 1.3e-08 M.

`COc1cccc(Cc2ccc(-c3cnn4c(O)ccnc34)cc2OC)c1` [Example 24, 7-hydroxy-3-[3-methoxy-4-(3-methoxyphenylmethyl)phenyl]pyrazolo[1,5-a]pyrimidine]: the half-maximal inhibitory concentration (IC50) in series [1] was 2.6e-08 M.

For the molecule `COc1ccccc1Cc1ccc(-c2cnn3c(O)ncnc23)cc1` [Example 17, 4-hydroxy-8-[4-(2-methoxyphenylmethyl)phenyl]pyrazolo[1,5-a]-1,3,5-triazine], in series [1], the concentration for half-maximal inhibition (IC50) stood at 8.7e-07 M.

In the case of `COc1cccc(C(C)c2ccc(-c3cnn4c(O)ncnc34)cc2)c1` (stereo not drawn) [Example 23, 4-hydroxy-8-{4-[1-(3-methoxyphenyl)ethan-1-yl)phenyl}pyrazolo[1,5-a]-1,3,5-triazine], the half-inhibitory concentration (IC50) in series [1] came to 2.6e-08 M.

Take `Oc1ncnc2c(-c3ccc(Cc4ccc5c(c4)OCO5)cc3)cnn12` [Example 31, 4-hydroxy-8-[4-(3,4-methylenedioxyphenylmethyl)phenyl]pyrazolo[1,5-a]-1,3,5-triazine]: the IC50 in series [1] came to 7.5e-07 M.

As to `COc1cc(-c2cnn3c(O)ccnc23)ccc1Sc1ccccc1` [Compound B2, reference compound], in series [2], the remaining at 5 min stood at 54.3%, the remaining at 0.25 h was determined as 32.9%, the remaining at 0.5 h was 31.4% and the remaining at 1 h amounted to 24.4%. The half-life in series [2] worked out at 6.5 min.

Take `Oc1ncnc2c(-c3ccc(Sc4ccccc4)cc3)cnn12` [Compound A1, reference compound]: in series [2], the remaining at 5 min was 32.3%, the remaining at 0.25 h came out at 13.8%, the remaining at 0.5 h was 13.1% and the remaining at 1 h was 13%. The half-life in series [2] was found to be 2.4 min.

On to `COc1ccccc1Cc1ccc(-c2cnn3c(O)ncnc23)cc1OC` [Example 9], for which the IC50 in series [1] turned out to be 9.5e-08 M.

Regarding `COc1cc(Cc2ccc(-c3cnn4c(O)ncnc34)cc2)cc(OC)c1` [Example 32, 4-hydroxy-8-[4-(3,5-dimethoxyphenylmethyl)phenyl]pyrazolo[1,5-a]-1,3,5-triazine], the half-maximal inhibitory concentration (IC50) in series [1] came to 7.7e-07 M.

In the case of `COc1ccc(Cc2ccc(-c3cnn4c(O)ncnc34)cc2)cc1` [Example 18, 4-hydroxy-8-[4-(4-methoxyphenylmethyl)phenyl]pyrazolo[1,5-a]-1,3,5-triazine], in series [2], the remaining at 5 min was determined as 96.5%, the remaining at 0.25 h was 86.2%, the remaining at 0.5 h was 71.6% and the remaining at 1 h is 52.4%. In addition, the half-life in series [2] is greater than 60 min.

For the molecule `CC(C)(c1ccccc1)c1ccc(-c2cnn3c(O)ccnc23)cc1` [Example 34, 7-hydroxy-3-[4-(2-phenylpropan-2-yl)phenyl]pyrazolo[1,5-a]pyrimidinie], the 50% inhibitory concentration (IC50) in series [1] was determined as 9e-08 M.

With `Oc1ncnc2c(-c3ccc(Cc4ccc(Cl)cc4)cc3)cnn12` [Example 22, 8-[4-(4-chlorophenylmethyl)phenyl]-4-hydroxypyrazolo[1,5-a]-1,3,5-triazine], in series [1], the half-maximal inhibitory concentration (IC50) was 9.3e-08 M.

Consider `Cc1cccc(Cc2ccc(-c3cnn4c(O)ccnc34)cc2C)c1` [Example 30], for which the IC50 in series [1] amounted to 2.5e-08 M.

On to `COc1cc(-c2cnn3c(O)ncnc23)ccc1Cc1ccc(C)cc1` [Example 8], for which, in series [1], the IC50 amounted to 1.1e-07 M.
